Experimental data as given in patent publication US20150050677A1, “METHODS AND SYSTEMS FOR MEASURING WHOLE BLOOD PLATELET REACTIVITY” (University of Massachusetts Medical School, priority 2013, published 2015).
Read-outs that look alike come from different tables or passages of the source.

Assays:
[1] = system: platelet reactivity (PRU); settings: PRU value >208; of the 3283 patients screened; cited from earlier work
[2] = system: ADP-induced platelet aggregation; settings: for Number of subjects with clopidogrel HTPR by original PRU: post-clopidogrel
[3] = system: maximal platelet reactivity (iso-TRAP-induced platelet activation); settings: 6-24 hours after 300-600 mg clopidogrel loading; pre-clopidogrel 279±47; p<0.0001; mean±SD
[4] = system: ADP-induced platelet aggregation; settings: P<0.0001
Method: After collection of baseline blood samples but prior to coronary angiography, subjects were administered a loading dose of 300-600 mg clopidogrel. Percutaneous coronary intervention (PCI) was performed at the same time on an ad hoc basis at the discretion of the treating physician. Patients were excluded from further analysis if a glycoprotein IIb/IIIa antagonist was used during PCI.
Blood samples were collected at baseline, prior to clopidogrel administration, and 6-24 hours later, after the catheterization procedure. After discarding the first 10 ml, blood was collected into siliconized glass vacutainers containing 3.2% sodium citrate (for platelet function testing and measurement of fibrinogen and vonWillebrand factor antigen) or EDTA-containing vacutainers (for complete blood counts). The samples were maintained at room temperature and hand-delivered to the laboratory where platelet function analyses were performed within 60 minutes of collection. Aliquots of centrifuged platelet-poor plasma and serum were stored at −70° C. until batch analyzed.
Citrated blood was centrifuged to obtain platelet-rich plasma (PRP) and adjusted to a final platelet count of 180,000 mm^−3 as previously described. […]

[5] = system: platelet reactivity (PRU); settings: PRU≧235; of the 1213 patients in the assay-guided group; cited from earlier work

COC(=O)[C@H](c1ccccc1Cl)N1CCc2sccc2C1 [clopidogrel]
patients classified as having HTPR [1]: 625 patients | mean VerifyNow PRU following clopidogrel loading ([2]; 6-24 hours after 300-600 mg clopidogrel loading, pre-clopidogrel 287±56, p<0.0001, mean±SD): 179±90 PRU | Number of subjects with clopidogrel HTPR by Corrected PRU ([2]; PRU threshold ≧178, PRU corrected for hematocrit (7.5 PRU per percent around 42%)): 46 (48%) subjects (%) | Number of subjects with clopidogrel HTPR by original PRU ([2]; PRU threshold ≧178): 50 (51%) subjects (%) | Number of subjects with clopidogrel HTPR by Corrected PRU ([2]; PRU threshold ≧208, PRU corrected for hematocrit): 33 (34%) subjects (%) | Number of subjects with clopidogrel HTPR by original PRU ([2]; PRU threshold ≧208): 39 (40%) subjects (%) | Number of subjects with clopidogrel HTPR by Corrected PRU ([2]; PRU threshold ≧230, PRU corrected for hematocrit): 21 (22%) subjects (%) | Number of subjects with clopidogrel HTPR by original PRU ([2]; PRU threshold ≧230): 31 (32%) subjects (%) | Number of subjects with clopidogrel HTPR by Corrected PRU ([2]; PRU threshold ≧235, PRU corrected for hematocrit): 19 (20%) subjects (%) | Number of subjects with clopidogrel HTPR by original PRU ([2]; PRU threshold ≧235): 30 (31%) subjects (%) | Number of subjects with clopidogrel HTPR by Corrected PRU ([2]; PRU threshold ≧236, PRU corrected for hematocrit): 18 (19%) subjects (%) | Number of subjects with clopidogrel HTPR by original PRU ([2]; PRU threshold ≧236): 30 (31%) subjects (%) | change in PRU following clopidogrel loading (mean PRU) ([2]; subjects with anemia): 106±89 PRU | change in PRU following clopidogrel loading (mean PRU) ([2]; subjects without anemia, p=0.96 vs anemia): 107±85 PRU | mean BASE following clopidogrel loading [3]: 298±53 Base units | median aggregation by WBA after clopidogrel loading ([4]; 10 μM ADP, fell from 16 (IQR;11,24)): 4 (IQR; 0,12) ohms | median aggregation by LTA after clopidogrel loading ([4]; 20 μM ADP, fell from 84 (IQR;71, 94)): 52 (IQR;37,70) percent | patients with clopidogrel HTPR [5]: 419 (35%) patients (%)
